Like-named read-outs stand apart in the source and are kept apart here.
How the values were obtained:
BTK = BTK (Homo sapiens, UniProt Q06187); assay: BTK inhibition kinetics (ADP-Glo kinase assay); type: biochemical; set-up: purchased Promega Corporation V2941
ERBB2 = molecular target: T1, ERBB2 (Homo sapiens, UniProt P04626); assay: NanoBRET in-cell target engagement, ERBB2; type: binding; settings: HEK296T cells, 1 h incubation, average of duplicates
T1 construct: host or cells: HEK296T (so in the source)
T1 sequence (P04626 23-1255): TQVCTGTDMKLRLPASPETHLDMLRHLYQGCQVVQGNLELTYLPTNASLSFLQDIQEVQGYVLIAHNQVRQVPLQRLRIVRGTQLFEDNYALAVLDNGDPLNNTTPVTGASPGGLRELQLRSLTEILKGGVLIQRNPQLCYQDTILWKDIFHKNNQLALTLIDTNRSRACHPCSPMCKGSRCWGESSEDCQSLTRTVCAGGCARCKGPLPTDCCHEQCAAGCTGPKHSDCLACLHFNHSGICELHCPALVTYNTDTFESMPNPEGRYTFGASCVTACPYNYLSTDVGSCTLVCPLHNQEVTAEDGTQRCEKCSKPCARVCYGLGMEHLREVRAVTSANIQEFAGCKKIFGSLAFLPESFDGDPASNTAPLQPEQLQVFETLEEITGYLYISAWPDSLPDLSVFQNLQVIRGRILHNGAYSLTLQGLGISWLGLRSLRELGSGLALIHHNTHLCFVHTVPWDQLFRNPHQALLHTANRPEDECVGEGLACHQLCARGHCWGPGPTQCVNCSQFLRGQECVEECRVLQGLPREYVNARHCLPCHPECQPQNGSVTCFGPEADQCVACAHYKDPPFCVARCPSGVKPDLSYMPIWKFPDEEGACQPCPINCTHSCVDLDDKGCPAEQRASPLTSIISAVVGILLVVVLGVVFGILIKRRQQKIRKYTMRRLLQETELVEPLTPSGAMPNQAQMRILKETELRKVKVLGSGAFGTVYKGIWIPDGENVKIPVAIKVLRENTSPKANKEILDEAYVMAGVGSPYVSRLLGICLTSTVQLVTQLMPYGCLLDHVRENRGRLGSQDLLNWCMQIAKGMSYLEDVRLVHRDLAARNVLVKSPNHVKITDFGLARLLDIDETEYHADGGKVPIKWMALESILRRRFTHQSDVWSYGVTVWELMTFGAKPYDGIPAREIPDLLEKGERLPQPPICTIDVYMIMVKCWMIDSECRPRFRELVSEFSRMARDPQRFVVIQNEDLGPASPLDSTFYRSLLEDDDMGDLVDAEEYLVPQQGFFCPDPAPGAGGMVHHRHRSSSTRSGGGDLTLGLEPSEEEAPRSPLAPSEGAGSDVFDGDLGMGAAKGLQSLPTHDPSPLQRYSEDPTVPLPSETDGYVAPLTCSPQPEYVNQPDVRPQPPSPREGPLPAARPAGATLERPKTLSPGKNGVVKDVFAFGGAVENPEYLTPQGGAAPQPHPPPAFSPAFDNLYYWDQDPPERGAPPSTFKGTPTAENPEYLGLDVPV
Method: (§1) In-cell target engagement was performed at Reaction Biology Corporation, using NanoBRET technology. Very briefly, HEK296T cells were transfected and treated in duplicate with JS25 for 1 h of incubation. The compound was diluted 10 times with 3-fold dilution, starting at 1 μM. Curve fits were performed only when the % NanoBret signal at the highest concentration of compounds was less than 55%. The IC50 values were determined using GraphPad Prism 8 ([…]).

JURKAT cells = assay: Cell viability assay (CellTiter-Glo), JURKAT; type: cell-based; settings: Homo sapiens, 72 h, n = 3
Method: All cell lines were purchased from ATCC, except for DoHH-2 cells that were obtained from DSMZ. Cells were cultivated in complete DMEM supplemented with 10% (vol/vol) FBS (Gibco) and 1% of penicillin/streptomycin (Gibco). The cells were grown in a humidified atmosphere of 5% CO2 at 37°C, with the medium changed every other day.
Cells were inoculated at a density of 5000 cells/well. Serially diluted compounds (starting at 50 μM) were added 24 h later. The assay was performed in triplicates. After 72 h of incubation, cellular viability was assessed by CellTiter-Glo (Promega) according to the manufacturer’s instructions. The values were normalized with the vehicle (DMSO), and the IC50 was calculated using GraphPad Prism 8.

BMX [1] = molecular target: T2, BMX (Homo sapiens, UniProt P51813); settings: first value of 3.5/49 in Table S3; ref SI 20; read-out: IC50, BMX, earlier value of JS25; cited from earlier work
T2 construct: host or cells: HEK296T (so in the source)
T2 sequence (P51813 1-675): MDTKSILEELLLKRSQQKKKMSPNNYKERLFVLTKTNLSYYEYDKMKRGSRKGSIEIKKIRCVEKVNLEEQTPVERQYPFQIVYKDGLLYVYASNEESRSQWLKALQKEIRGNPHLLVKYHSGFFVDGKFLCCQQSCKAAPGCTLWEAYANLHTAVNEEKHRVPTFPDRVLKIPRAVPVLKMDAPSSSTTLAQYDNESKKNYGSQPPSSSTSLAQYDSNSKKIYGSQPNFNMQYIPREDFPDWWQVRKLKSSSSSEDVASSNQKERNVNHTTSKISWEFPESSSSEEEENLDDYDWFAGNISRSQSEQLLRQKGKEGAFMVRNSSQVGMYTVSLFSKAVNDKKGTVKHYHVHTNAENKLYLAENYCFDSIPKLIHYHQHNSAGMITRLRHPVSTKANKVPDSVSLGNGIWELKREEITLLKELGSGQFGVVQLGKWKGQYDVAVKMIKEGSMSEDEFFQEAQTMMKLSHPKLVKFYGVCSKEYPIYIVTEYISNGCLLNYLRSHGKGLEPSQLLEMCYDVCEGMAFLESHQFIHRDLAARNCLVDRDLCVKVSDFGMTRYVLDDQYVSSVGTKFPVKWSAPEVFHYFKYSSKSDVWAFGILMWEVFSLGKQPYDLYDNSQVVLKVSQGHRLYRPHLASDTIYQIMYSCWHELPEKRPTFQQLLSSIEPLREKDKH

HBEC-5i cell model = assay: In vitro blood–brain barrier permeability (translocation), HBEC-5i cell model; type: in vitro ADME, human; settings: Translocation 24 h, compound 15 μM
Method: Human cerebral microvascular endothelial cells (HBEC-5i) were cultured as a monolayer on attachment factor protein solution (AF)-coated T-flasks (Gibco), using DMEM/F12 medium (Gibco), supplemented with 10% FBS, 1% penicillin/streptomycin, and 40.0 μg/mL endothelial cell growth supplement (ECGS, Sigma), according to the manufacturer’s instructions. The capacity of the compounds to cross the brain–blood barrier (BBB) was evaluated using an in vitro HBEC-5i cell model, as previously described.[29] Samples from the apical and basolateral sides were collected, and fluorescence intensity was measured using a Varioskan LUX multimode microplate reader. The retention was considered the difference between the initial fluorescence of compounds (100%) and the aggregated apical and basolateral fluorescence.

BMX [2] = molecular target: T2, BMX; assay: NanoBRET in-cell target engagement, BMX; type: binding
Method: as §1

TEC = molecular target: T3, TEC (Homo sapiens, UniProt P42680); assay: NanoBRET in-cell target engagement, TEC; type: binding
T3 construct: host or cells: HEK296T (so in the source)
T3 sequence (P42680 1-631): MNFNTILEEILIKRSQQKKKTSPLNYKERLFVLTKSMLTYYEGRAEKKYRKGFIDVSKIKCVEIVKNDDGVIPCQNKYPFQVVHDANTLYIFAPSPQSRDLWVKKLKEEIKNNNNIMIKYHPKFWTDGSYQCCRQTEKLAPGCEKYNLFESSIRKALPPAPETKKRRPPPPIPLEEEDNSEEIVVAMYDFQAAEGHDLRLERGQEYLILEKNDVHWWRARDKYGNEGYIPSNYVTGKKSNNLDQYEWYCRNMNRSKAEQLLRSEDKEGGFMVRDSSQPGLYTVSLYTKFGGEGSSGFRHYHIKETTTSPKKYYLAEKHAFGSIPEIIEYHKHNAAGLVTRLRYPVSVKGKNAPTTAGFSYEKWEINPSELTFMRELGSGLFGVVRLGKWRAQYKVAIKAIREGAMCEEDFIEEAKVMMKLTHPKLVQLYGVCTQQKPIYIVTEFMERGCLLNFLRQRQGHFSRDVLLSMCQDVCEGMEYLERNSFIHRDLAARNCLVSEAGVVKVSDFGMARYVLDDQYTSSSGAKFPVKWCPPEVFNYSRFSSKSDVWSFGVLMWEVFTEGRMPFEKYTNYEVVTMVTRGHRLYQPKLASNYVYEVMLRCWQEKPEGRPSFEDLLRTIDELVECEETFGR
Method: as §1

[3] = BTK preincubated with inhibitor 2–60 min, ATP 50 μM
[4] = HEK296T cells, 1 h incubation, average of duplicates

BTK, sequence (Q06187 whole entry): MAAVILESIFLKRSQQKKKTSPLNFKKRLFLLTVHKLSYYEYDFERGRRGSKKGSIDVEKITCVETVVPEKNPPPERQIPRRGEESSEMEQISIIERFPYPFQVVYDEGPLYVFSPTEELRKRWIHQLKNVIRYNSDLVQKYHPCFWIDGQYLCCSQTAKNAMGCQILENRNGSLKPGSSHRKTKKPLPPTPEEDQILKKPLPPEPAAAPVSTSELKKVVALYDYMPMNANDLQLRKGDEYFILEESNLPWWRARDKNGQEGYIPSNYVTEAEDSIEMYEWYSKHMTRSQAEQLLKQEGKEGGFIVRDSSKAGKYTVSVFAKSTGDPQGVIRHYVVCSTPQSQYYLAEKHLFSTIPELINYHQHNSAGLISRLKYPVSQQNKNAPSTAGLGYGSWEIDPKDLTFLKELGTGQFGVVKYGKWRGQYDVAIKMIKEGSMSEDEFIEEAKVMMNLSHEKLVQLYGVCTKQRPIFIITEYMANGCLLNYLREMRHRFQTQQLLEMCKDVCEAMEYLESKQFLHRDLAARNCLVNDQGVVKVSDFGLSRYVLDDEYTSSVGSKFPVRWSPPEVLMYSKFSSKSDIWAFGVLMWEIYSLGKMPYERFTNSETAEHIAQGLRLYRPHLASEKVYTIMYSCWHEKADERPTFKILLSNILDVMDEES

increase in the rate of protein inactivation compared to ibrutinib, acalabrutinib and BMX-IN-1 (BTK): 8–200 fold | increased rate of inactivation (kinact/KI) relative to BMX-IN-1 (BTK): ~18 fold | increased rate of inactivation (kinact/KI) relative to acalabrutinib (BTK): ~200 fold | increased rate of inactivation (kinact/KI) relative to ibrutinib (BTK): approximately 8 fold | kinact of JS25, fold faster compared with ibrutinib, acalabrutinib and BMX-IN-1 (BTK): 10 fold | Ki (BTK; [3]): 0.77 ± 0.06 nM | kinact (BTK; [3]): 0.00668 s⁻¹ | kinact/KI (BTK; [3]): 8.72e+06 ± 1.02e+06 M⁻¹ s⁻¹ | IC50 (ERBB2): > 3000 nM | IC50 (JURKAT cells): 38400 ± 70 nM | % Fluorescence, Basolateral side (permeability to the BBB) (HBEC-5i cell model): 28.5% | selectivity toward BTK relative to BMX (BMX [2]): ~2 fold | IC50 (BMX [2]; [4]): 49 nM | selectivity (kinase/BTK), BMX (BMX [2]; IC50 kinase/IC50 BTK): 1.7 | selectivity for BTK relative to TEC (TEC): ~8 fold | IC50 (TEC; [4]): 220 nM | selectivity (kinase/BTK), TEC (TEC; IC50 kinase/IC50 BTK): 7.7
Structure (SMILES): C=CC(=O)Nc1cc(C)cc(-n2c(=O)ccc3cnc4ccc(-c5ccc(NS(C)(=O)=O)cc5)cc4c32)c1 [JS25]
IC50 (BMX [1]): 3.5 nM

Reference: article PMC9667546, “Selective Inhibition of Bruton’s Tyrosine Kinase by a Designed Covalent Ligand Leads to Potent Therapeutic Efficacy in Blood Cancers Relative to Clinically Used Inhibitors” (ACS Pharmacology & Translational Science, 2022)
